Reference: patent US20050215548A1 (Cyclacel Limited, priority 2002, published 2005)

What was measured:
H1299 = assay: Combination treatment with cisplatin or etoposide, MTT, H1299; format: cell-based, human
Description: It is well established that radiotherapy and most current forms of chemotherapy cause extensive genetic damage and induction of the p53-dependent apoptotic pathway, which determines the important role of this tumor suppressor protein in cancer therapy. HDM2, on the other hand, as a transcriptional product and negative regulator pf p53, would destabilise p53 and diminish its pro-apoptotic function. Inhibitors of the p53-HDM2 negative feedback loop (e.g. compounds disrupting the p53-HDM2 complex) are expected to synergise with cytotoxic agents for induction of p53 and subsequent apoptosis. […] Both chemotherapeutic agents were used in the concentration range of 100-0.19 μM.

[1] = system: AGS, H1299, MCF7 or SJSA1 cells; assay: Cell morphology (cell rounding); format: cell-based, human; conditions: five times IC50
Description: Equal amounts of cell lysate were separated by SDS-PAGE and analysed by immunoblotting using the indicated antibodies. An estimation of the extent of cell rounding is indicated above each lane. The arrow indicates the position of a 85-kDa cleavage product of PARP, indicative of apoptosis. (B) The effect of compound 2 on the levels of the cell cycle proteins in AGS cells (wild-type 53). […] Equal amounts of cell lysate were separated by SDS-PAGE and analysed by immunoblotting using the indicated antibodies. An estimation of the extent of cell rounding is indicated above each lane. (C) The effect of negative control compound (refer Example 10), compound 2, cisplatin, and anisomycin on the levels of key proteins in MCF7 cells. […] Cisplatinum and anisomycin (a transcription inhibitor) treatments were with 50 μM or 37 μM, respectively. Cells were harvested at various time points; afterwards lysates were prepared and separated by SDS-PAGE and analysed by immunoblotting. The proteins detected are indicated. The extent of rounded or floating cells and the percentage viable cells were assessed. […] Equal amounts of cell lysate were separated by SDS-PAGE and analysed by immunoblotting using a range of antibodies. An estimation of the extent of cell rounding is indicated above each lane. […] SJSA1 cells were treated with 5 times [IC50] of compound 2 and collected at the indicated time points. Equal amounts of cell lysate were separated by SDS-PAGE and analysed by immunoblotting using a range of antibodies. An estimation of the extent of cell rounding is indicated above each lane.
Cells were treated with 5 times [IC50] of compound 2 and collected at various time points. The percentage of rounded cells was counted before cells were trypsinised and counted for cell viability using trypan blue.
Cells were lysed and equal amounts were analysed by SDS-polyacrylamide gel electrophoresis (SDS-PAGE) and immunoblotting. […] The reduction in E2F-1 levels correlated with reduction in E2F transcriptional activity as determined by an E2F-dependent luciferase reporter assay (refer Example 6).

## O=[N+]([O-])c1cc(S(=O)(=O)Nc2ccc(Cl)cc2)sc1Cl [Compound 2, 5-Chloro-4-nitrothiophene-2-sulfonic acid (4-chlorophenyl)-amide]
H1299; 2 added 6 hours before etoposide
  IC50 of etoposide, fold lower in cells pre-treated with 2: 25 fold
H1299; 2 added prior to the treatment with cisplatin
  potency increase of cisplatin: 16 fold
H1299; Homo sapiens, NCI-H1299, MTT, 72 hours, Table 5, read-out: IC50, agent alone
  IC50: 5.1 µM
[1]
  cell rounding: Rapid cell rounding was detected in all cell types tested
